Experimental data as given in patent US8952024B2, “Herbicidal pyrimidone derivatives” (E I du Pont de Nemours and Company, priority 2009, dated 2015).

How the values were obtained:
Type in all cases: in vivo
Conditions in all cases: Postemergence
[1] = test system: Italian ryegrass (Lolium multiflorum); test: Test B pre-/postemergence plant response
Summary of the method: (§1)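 Visually scored on a 0 to 100 scale after 13 to 15 days in greenhouse versus controls. Treatments were preemergence on seeded loam/sand soil and postemergence on 1- to 4-leaf plants.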

[2] = test system: bermudagrass (Cynodon dactylon); test: Test B pre-/postemergence plant response
Summary of the method: as §1

[3] = test system: blackgrass (Alopecurus myosuroides); test: Test B pre-/postemergence plant response
Summary of the method: as §1

corn (Zea mays) = test: Test B pre-/postemergence plant response
Summary of the method: as §1

[4] = test system: downy bromegrass (Bromus tectorum); test: Test B pre-/postemergence plant response
Summary of the method: as §1

[5] = test system: giant foxtail (Setaria faberii); test: Test B pre-/postemergence plant response
Summary of the method: as §1

[6] = test system: goosegrass (Eleusine indica); test: Test B pre-/postemergence plant response
Summary of the method: as §1

[7] = test system: green foxtail (Setaria viridis); test: Test B pre-/postemergence plant response
Summary of the method: as §1

[8] = test system: johnsongrass (Sorghum halepense); test: Test B pre-/postemergence plant response
Summary of the method: as §1

[9] = test system: morningglory (Ipomoea coccinea); test: Test B pre-/postemergence plant response
Summary of the method: as §1

[10] = test system: pigweed (Amaranthus retroflexus); test: Test B pre-/postemergence plant response
Summary of the method: as §1

[11] = test system: ragweed (common ragweed, Ambrosia elatior); test: Test B pre-/postemergence plant response
Summary of the method: as §1

soybean (Glycine max) = test: Test B pre-/postemergence plant response
Summary of the method: as §1

[12] = test system: velvetleaf (Abutilon theophrasti); test: Test B pre-/postemergence plant response
Summary of the method: as §1

[13] = test system: wheat (Triticum aestivum); test: Test B pre-/postemergence plant response
Summary of the method: as §1

[14] = test system: canarygrass (Phalaris minor); test: Test B postemergence plant response
Summary of the method: (§2)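 Visual ratings from 0 (no effect) to 100 (complete control), made against controls 13–15 days after treatment, kept in a greenhouse. Compounds were applied postemergence to potted plants at the 1- to 4-leaf stage (2–18 cm).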

[15] = test system: chickweed (Stellaria media); test: Test B postemergence plant response
Summary of the method: as §2

[16] = test system: winter barley (Hordeum vulgare); test: Test B postemergence plant response
Summary of the method: as §2

[17] = 31 g ai/ha, 0 to 100 scale (0 no effect, 100 complete control)
[18] = 250 g ai/ha, scale 0 to 100 (0 no effect, 100 complete control), 13 to 15 days
[19] = 62 g ai/ha, scale 0 to 100 (0 no effect, 100 complete control)
[20] = 125 g ai/ha, scale 0 to 100 (0 no effect, 100 complete control)

SMILES: CCn1c(-c2cccc(F)c2)ncc(C(=O)C2=C(O)C3CCC(C3)C2=O)c1=O (centres unmarked) [Compound 236]
- Plant response rating, Ryegrass, Italian [1, 17]: 0
- Plant response rating, Ryegrass, Italian [1, 18]: 5
- Plant response rating, Ryegrass, Italian [1, 19]: 0
- Plant response rating, Bermudagrass [2, 17]: 95
- Plant response rating, Bermudagrass [2, 20]: 98
- Plant response rating, Bermudagrass [2, 19]: 98
- Plant response rating, Blackgrass [3, 17]: 0
- Plant response rating, Blackgrass [3, 20]: 30
- Plant response rating, Blackgrass [3, 18]: 40
- Plant response rating, Blackgrass [3, 19]: 5
- Plant response rating, Corn (corn (Zea mays); [17]): 15
- Plant response rating, Corn (corn (Zea mays); [20]): 70
- Plant response rating, Corn (corn (Zea mays); [19]): 60
- Plant response rating, Bromegrass, Downy [4, 17]: 0
- Plant response rating, Bromegrass, Downy [4, 20]: 10
- Plant response rating, Bromegrass, Downy [4, 18]: 25
- Plant response rating, Bromegrass, Downy [4, 19]: 5
- Plant response rating, Foxtail, Giant [5, 17]: 75
- Plant response rating, Foxtail, Giant [5, 20]: 95
- Plant response rating, Foxtail, Giant [5, 18]: 98
- Plant response rating, Foxtail, Giant [5, 19]: 80
- Plant response rating, Goosegrass [6, 17]: 80
- Plant response rating, Goosegrass [6, 20]: 95
- Plant response rating, Goosegrass [6, 18]: 100
- Plant response rating, Goosegrass [6, 19]: 90
- Plant response rating, Foxtail, Green [7, 17]: 80
- Plant response rating, Foxtail, Green [7, 20]: 98
- Plant response rating, Foxtail, Green [7, 18]: 98
- Plant response rating, Foxtail, Green [7, 19]: 95
- Plant response rating, Johnsongrass [8, 17]: 0
- Plant response rating, Johnsongrass [8, 20]: 20
- Plant response rating, Johnsongrass [8, 18]: 55
- Plant response rating, Johnsongrass [8, 19]: 15
- Plant response rating, Morningglory [9, 17]: 60
- Plant response rating, Morningglory [9, 20]: 95
- Plant response rating, Morningglory [9, 19]: 95
- Plant response rating, Pigweed [10, 17]: 85
- Plant response rating, Pigweed [10, 19]: 85
- Plant response rating, Ragweed [11, 17]: 80
- Plant response rating, Ragweed [11, 18]: 98
- Plant response rating, Ragweed [11, 19]: 95
- Plant response rating, Soybean (soybean (Glycine max); [17]): 90
- Plant response rating, Soybean (soybean (Glycine max); [18]): 100
- Plant response rating, Soybean (soybean (Glycine max); [19]): 98
- Plant response rating, Velvetleaf [12, 17]: 98
- Plant response rating, Velvetleaf [12, 18]: 100
- Plant response rating, Velvetleaf [12, 19]: 100
- Plant response rating, Wheat [13, 17]: 0
- Plant response rating, Wheat [13, 18]: 60
- Plant response rating, Wheat [13, 19]: 10
- Plant response rating, Canarygrass [14, 17]: 0
- Plant response rating, Canarygrass [14, 20]: 0
- Plant response rating, Canarygrass [14, 18]: 10
- Plant response rating, Canarygrass [14, 19]: 0
- Plant response rating, Chickweed [15, 17]: 75
- Plant response rating, Chickweed [15, 20]: 100
- Plant response rating, Chickweed [15, 18]: 100
- Plant response rating, Chickweed [15, 19]: 100
- Plant response rating, Barley [16, 17]: 0
- Plant response rating, Barley [16, 20]: 0
- Plant response rating, Barley [16, 18]: 0
- Plant response rating, Barley [16, 19]: 0
